Source: US20190212343A1, “METHODS FOR THE TREATMENT OF DISORDERS RELATED TO PHOSPHORYLATION OF HISTONES” (H. LEE MOFFITT CANCER CENTER AND RESEARCH INSTITUTE, INC., priority 2014, published 2019)

How the values were obtained:
AR mRNA = AR mRNA levels in androgen-deprived prostate cancer cells (qPCR with AR primers); type: cell-based, human; conditions: androgen-deprived LAPC4 and LNCaP cells, overnight treatment
ACK1 = target: T1, ACK1 (Homo sapiens, UniProt Q07912); assay: In vitro kinase assay with purified ACK1 and H4, immunoblotting with pTyr antibodies; type: biochemical; conditions: purified ACK1 and H4, AIM-100 100 nM
T1 construct: made in house; host or cells: insect cells
Experimental: FIGS. 9A-9E show ACK1 phosphorylates histone H4 at Tyrosine 88. (FIG. 9A) peptide were spotted followed by immunoblotting with indicated antibodies. (FIG. 9B) Equimolar amounts of purified ACK1 and H4 proteins were incubated in the presence of AIM-100 (100 nM) and reaction subjected to immunoblotting with pTyr antibodies. (FIG. 9C) In vitro kinase assay performed using purified ACK1 and H4, followed by immunoblotting with pY88-H4 antibodies. (FIG. 9D) H4 Y88-phosphorylation in vivo. LNCaP cells were treated with DZI-067, AIM-100 or Enzalutamide (7 uM, 16 hrs). The nuclear lysates were immunoprecipitated with pY88-H4 antibodies followed by immunoblotting with H4. Lower panel is input lysate. (FIG. 9E) LNCaP cells were treated with Crizotinib (1 uM, 16 hrs). The cell lysates were immunoprecipitated with pY88-H4 antibodies followed by immunoblotting with H4 (upper panel). Lower panel is input lysate immunblotted with H4 antibodies.
To assess direct binding of Ack1 to H4, in vitro kinase assay was performed using purified Ack1 and H4 (New England Biolabs). Human Ack1 were expressed in insect cells and purified to homogeneity (unpublished data). Immunoblotting with pY88-H4 and pTyr antibodies confirmed that indeed H4 is directly Tyr-phosphorylated by Ack1 (FIG. 9B).

[1] = tested on: AR and H3K4me3 at intron 2 of AR gene; assay: ChIP with AR or H3K4me3 antibodies and qPCR at intron 2 of AR gene; type: cell-based, human; conditions: LNCaP cells, absence of androgen
Experimental: LNCaP cells treated with AIM-100 and ChIP was performed using AR, H3K4me3 or IgG antibodies followed by qPCR using primers corresponding to intron 2, or control region. *p<0.05, **p<0.05.

SLC6A4 mRNA = SLC6A4 mRNA expression (real time RT-PCR); type: cell-based, human; conditions: inhibition of ACK1 by small molecule inhibitor
Experimental: The ratio of SLC6A4 to actin is shown. (FIG. 5D) JAR cells were treated with EGF ligand and ChIP was performed using pY99-H3 antibodies followed by quantitative PCR using primers corresponding to intron 2 (VNTR). […]
Applicant also identified for the first time that human and mouse serotonin transporter (SLC6A4 or SERT or 5-HTT) gene expression is regulated by ACK1. A novel mechanism was identified that is operational in SLC6A4 gene regulation. ACK1 deposits pY99-H3 epigenetic marks in promoter (5-HTTLPR) and intron 2 (VNTR) of SLC6A4 gene to regulate its transcription. […] Without being bound by theory, applicant believes that expression of Gabra6, Slc6a2, Slc6a4, Slc6a5 and Oxt genes as well as genes shown in Table 2 are also regulated by ACK1/pY99-H3 epigenetic activity/signaling.

[2] = tested on: pY88-H4 epigenetic marks in AR gene; assay: ChIP with pY88-H4 antibodies and real time PCR at the AR gene; type: cell-based, human; conditions: LNCaP and VCaP cells grown in the absence of androgen
Experimental: FIGS. 10A-10C show H4 Y88-phosphorylation occurs within and downstream of AR gene. (FIG. 10A) The human AR gene and two pY88-H4 binding sites are shown. (FIG. 10B) VCaP and (FIG. 10C) LNCaP cells treated with ACK1 inhibitor; ChIP was performed followed by qPCR using primers corresponding to promoter, intron 2, 3′UTR or control region. VCaP: *p<0.05, **p<0.05; LNCaP: *p<0.05, **p<0.05
To determine whether ACK1 modifies chromatin at AR gene locus, LNCaP and VCaP cells grown in the absence of androgen and were treated with AIM-100. Chromatin immunoprecipitation (ChIP) was performed using pY88-H4 antibodies, followed by real time PCR with primers corresponding to the AR promoter, intron 2 and 3′UTR (FIG. 10A). […] These marks were also deposited at 3′UTR of the AR gene but not at the promoter region (FIGS. 10B and 10C).

T1 sequence (Q07912 whole entry): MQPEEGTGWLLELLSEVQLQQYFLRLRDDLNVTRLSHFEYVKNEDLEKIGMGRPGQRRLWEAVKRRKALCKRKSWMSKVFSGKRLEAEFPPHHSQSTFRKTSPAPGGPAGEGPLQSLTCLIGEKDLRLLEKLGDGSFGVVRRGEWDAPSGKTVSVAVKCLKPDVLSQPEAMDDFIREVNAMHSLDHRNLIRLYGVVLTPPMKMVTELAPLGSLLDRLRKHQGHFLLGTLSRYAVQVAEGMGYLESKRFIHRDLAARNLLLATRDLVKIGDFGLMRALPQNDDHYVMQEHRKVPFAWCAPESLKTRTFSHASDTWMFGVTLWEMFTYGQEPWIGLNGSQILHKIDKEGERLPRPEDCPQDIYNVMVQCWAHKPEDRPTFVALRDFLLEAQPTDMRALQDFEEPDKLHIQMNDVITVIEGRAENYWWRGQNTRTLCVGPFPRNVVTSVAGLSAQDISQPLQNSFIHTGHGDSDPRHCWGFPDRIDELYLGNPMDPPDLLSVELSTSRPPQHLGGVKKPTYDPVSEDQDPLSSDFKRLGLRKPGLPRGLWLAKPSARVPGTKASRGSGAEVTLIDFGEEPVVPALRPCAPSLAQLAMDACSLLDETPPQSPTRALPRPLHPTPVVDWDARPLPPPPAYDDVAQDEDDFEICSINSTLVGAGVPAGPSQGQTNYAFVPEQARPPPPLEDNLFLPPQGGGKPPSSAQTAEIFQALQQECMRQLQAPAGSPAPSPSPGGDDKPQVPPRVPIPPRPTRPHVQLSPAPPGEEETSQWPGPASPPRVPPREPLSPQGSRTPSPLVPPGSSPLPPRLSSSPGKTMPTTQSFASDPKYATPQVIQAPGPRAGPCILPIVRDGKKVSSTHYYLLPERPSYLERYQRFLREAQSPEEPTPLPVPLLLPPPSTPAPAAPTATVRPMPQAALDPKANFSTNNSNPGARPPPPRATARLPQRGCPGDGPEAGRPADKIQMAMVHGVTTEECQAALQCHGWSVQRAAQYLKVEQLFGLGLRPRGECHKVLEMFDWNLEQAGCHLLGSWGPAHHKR

For `c1ccc(-c2oc3ncnc(NC[C@@H]4CCCO4)c3c2-c2ccccc2)cc1` [AIM-100], the “AR mRNA levels” value (AR mRNA) was “significantly suppressed”, the “H4 Tyr-phosphorylation by ACK1” value (ACK1) was “H4 Tyr-phosphorylation is abrogated” and the “AR enrichment at intron 2 of AR gene” value [1] was “abolished”. The “H3K4me3 methyl marks at intron 2 of AR gene” value [1] was “abolished”, the “SLC6A4 mRNA expression” value (SLC6A4 mRNA) was “significant loss of SLC6A4 mRNA expression” and the “pY88-H4 epigenetic marks at AR gene (intron 2, 3′UTR)” value [2] was “erased”.
